Test results: patent US10544141B2, “Derivatives and methods of treating hepatitis B infections” (Novira Therapeutics, Inc., priority 2014, dated 2020)

Test system: HBV
Experiment: HBV replication inhibition assay (BDNA assay) in HepG2.2.15 cells
Type: cell-based
Details: 6 days treatment, encapsidated HBV DNA in supernatant by branched DNA QuantiGene assay
Description: HBV replication inhibition by the compounds of this invention could be determined in cells infected or transfected with HBV, or cells with stably integrated HBV, such as HepG2.2.15 cells (Sells et al. 1987). In this example, HepG2.2.15 cells were maintained in cell culture medium containing 10% fetal bovine serum (FBS), Geneticin, L-glutamine, penicillin and streptomycin. HepG2.2.15 cells could be seeded in 96-well plates at a density of 40,000 cells/well and be treated with serially diluted compounds at a final DMSO concentration of 0.5% either alone or in combination by adding drugs in a checker box format. Cells were incubated with compounds for three days, after which medium was removed and fresh medium containing compounds was added to cells and incubated for another three days. At day 6, supernatant was removed and treated with DNase at 37° C. for 60 minutes, followed by enzyme inactivation at 75° C. for 15 minutes. Encapsidated HBV DNA was released from the virions and covalently linked HBV polymerase by incubating in lysis buffer (Affymetrix QS0010) containing 2.5 μg proteinase K at 50° C. for 40 minutes. HBV DNA was denatured by addition of 0.2 M NaOH and detected using a branched DNA (BDNA) QuantiGene assay kit according to manufacturer recommendation (Affymetrix). HBV DNA levels could also be quantified using qPCR, based on amplification of encapsidated HBV DNA extraction with QuickExtraction Solution (Epicentre Biotechnologies) and amplification of HBV DNA using HBV specific PCR probes that can hybridize to HBV DNA and a fluorescently labeled probe for quantitation. In addition, cell viability of HepG2.2.15 cells incubated with test compounds alone or in combination was determined by using CellTitre-Glo reagent according to the manufacturer protocol (Promega). The mean background signal from wells containing only culture medium was subtracted from all other samples, and percent inhibition at each compound concentration was calculated by normalizing to signals from HepG2.2.15 cells treated with 0.5% DMSO using equation E1. % inhibition=(DMSOave−Xi)/DMSOave×100% E1: where DMSOave is the mean signal calculated from the wells that were treated with DMSO control (0% inhibition control) and Xi is the signal measured from the individual wells. EC50 values, effective concentrations that achieved 50% inhibitory effect, were determined by non-linear fitting using Graphpad Prism software (San Diego, Calif.) and equation E2 Y=Y min+(Y max−Y min)/(1+10(Log EC50−X)×HillSlope) E2: […]
where Y represents percent inhibition values and X represents the logarithm of compound concentrations.
Selected compounds of the invention were assayed in the HBV replication assay (BDNA assay), as described above and a representative group of these active compounds is shown in Table 3. […] In Table 3, “A” represents 0.01<EC50<0.10; “B” represents 0.10≤EC50<0.50; and “C” represents 0.50≤EC50<1.0; (‘+’ indicates >50% activity at 10 μM).

Row | Compound | EC50 [nM] | HBV replication inhibition >50% at 10 μM (qualitative flag)
1 | C[C@H]1Cc2[nH]nc(C3CCCO3)c2CN1C(=O)Nc1ccc(F)c(Br)c1 (single isomer, unassigned) [967 D1] | 10 to 100 | 
2 | C[C@H]1Cc2[nH]nc(C3CCCO3)c2CN1C(=O)Nc1ccc(F)c(Br)c1 (single isomer, unassigned) [967 D2] | 100 to 500 | 
3 | CC(C)(O)c1n[nH]c2c1CN(C(=O)Nc1cccc(Cl)c1)CC2 [Compound 238] |  | + (‘+’ indicates >50% activity at 10 μM)
4 | O=C(Nc1cccc(Cl)c1)N1CCc2[nH]nc(O)c2C1 [Compound 241, N-(3-chlorophenyl)-3-hydroxy-1,4,6,7-tetrahydropyrazolo[4,3-c] pyridine-5-carboxamide] |  | + (‘+’ indicates >50% activity at 10 μM)
5 | O=C(Nc1cccc(Cl)c1)N1CCc2[nH]nc(Br)c2C1 [Compound 260] |  | + (‘+’ indicates >50% activity at 10 μM)
6 | CC(CO)c1n[nH]c2c1CN(C(=O)Nc1cccc(Cl)c1)CC2 (stereo not drawn) [Compound 388, N-(3-chlorophenyl)-3-(2-hydroxy-1-methyl-ethyl)-1,4,6,7-tetrahydropyrazolo[4,3-c]pyridine-5-carboxamide] |  | + (‘+’ indicates >50% activity at 10 μM)

Same assay, conditions: Hepatitis B virus, HepG2.2.15, 144 h, 6 days treatment, encapsidated HBV DNA in supernatant by branched DNA QuantiGene assay

Row | Compound | EC50 [nM]
7 | C[C@H]1Cc2[nH]nc(C3CCCO3)c2CN1C(=O)Nc1cccc(Cl)c1 (single isomer, unassigned) [964 D1] | 10 to 100
8 | C[C@H]1Cc2[nH]nc(C3CCCO3)c2CN1C(=O)Nc1ccc(F)c(Cl)c1 (single isomer, unassigned) [965 D1] | 10 to 100
9 | C[C@H]1Cc2[nH]nc(C3CCCO3)c2CN1C(=O)Nc1cccc(Br)c1 (single isomer, unassigned) [966 D1] | 10 to 100
10 | C[C@H]1Cc2[nH]nc(C3CCCO3)c2CN1C(=O)Nc1ccnc(Br)c1F (single isomer, unassigned) [968 D1] | 500 to 1000
11 | C[C@H]1Cc2[nH]nc(C3CCCO3)c2CN1C(=O)Nc1ccc(F)c(C#N)c1 (single isomer, unassigned) [969 D1] | 100 to 500
12 | Cc1cccc(NC(=O)N2Cc3c(C4CCCO4)n[nH]c3C[C@@H]2C)c1 (single isomer, unassigned) [970 D1] | 100 to 500
13 | Cc1cc(NC(=O)N2Cc3c(C4CCCO4)n[nH]c3C[C@@H]2C)ccc1F (single isomer, unassigned) [971 D1] | 10 to 100
14 | CC1Cc2[nH]nc(C3CCC3)c2CN1C(=O)Nc1ccnc(Br)c1F (stereo not drawn) [760 S] | 100 to 500
15 | CC1Cc2[nH]nc(C3CCC3)c2CN1C(=O)Nc1cccc(C#N)c1F (stereo not drawn) [761 R] | 100 to 500
16 | C[C@@H]1Cc2[nH]nc(C3CCCC3)c2CN1C(=O)Nc1cccc(Br)c1 [927 R] | 10 to 100
17 | C[C@H]1Cc2[nH]nc(C3CCCC3)c2CN1C(=O)Nc1cccc(Br)c1 [927 S] | 10 to 100
18 | C[C@@H]1Cc2[nH]nc(C3CCCC3)c2CN1C(=O)Nc1ccc(F)c(Br)c1 [928 R] | 10 to 100
19 | C[C@H]1Cc2[nH]nc(C3CCCC3)c2CN1C(=O)Nc1ccc(F)c(Br)c1 [928 S] | 10 to 100
20 | C[C@@H]1Cc2[nH]nc(C3CCCC3)c2CN1C(=O)Nc1ccnc(Br)c1F [929 R] | 10 to 100
21 | C[C@H]1Cc2[nH]nc(C3CCCC3)c2CN1C(=O)Nc1ccnc(Br)c1F [929 S] | 10 to 100
22 | C[C@@H]1Cc2[nH]nc(C3CCCC3)c2CN1C(=O)Nc1ccc(F)c(C#N)c1 [930 R] | 10 to 100
23 | C[C@H]1Cc2[nH]nc(C3CCCC3)c2CN1C(=O)Nc1ccc(F)c(C#N)c1 [930 S] | 10 to 100
24 | Cc1cc(NC(=O)N2Cc3c(C4CCCC4)n[nH]c3C[C@H]2C)ccc1F [931 R] | 10 to 100
25 | Cc1cc(NC(=O)N2Cc3c(C4CCCC4)n[nH]c3C[C@@H]2C)ccc1F [931 S] | 10 to 100
26 | C[C@@H]1Cc2[nH]nc(C3CCCC3)c2CN1C(=O)Nc1ccc(F)c(Cl)c1 [932 R] | 10 to 100
27 | C[C@H]1Cc2[nH]nc(C3CCCC3)c2CN1C(=O)Nc1ccc(F)c(Cl)c1 [932 S] | 10 to 100

Row | Compound | EC50 [nM]
28 | Cc1cccc(NC(=O)N2Cc3c(C4CCCC4)n[nH]c3C[C@H]2C)c1 [933 R] | 10 to 100
29 | Cc1cccc(NC(=O)N2Cc3c(C4CCCC4)n[nH]c3C[C@@H]2C)c1 [933 S] | 10 to 100
30 | C[C@@H]1Cc2[nH]nc(C3CCCC3)c2CN1C(=O)Nc1cccc(Cl)c1 [934 R] | 10 to 100
31 | C[C@H]1Cc2[nH]nc(C3CCCC3)c2CN1C(=O)Nc1cccc(Cl)c1 [934 S] | 10 to 100
32 | C[C@H]1Cc2[nH]nc(C3CCCO3)c2CN1C(=O)Nc1ccc(F)c(Cl)c1 (stereo partly drawn) [965 D2] | 10 to 100
33 | C[C@H]1Cc2[nH]nc(C3CCCO3)c2CN1C(=O)Nc1ccc(F)c(C#N)c1 (stereo partly drawn) [969 D2] | 100 to 500
34 | Cc1cc(NC(=O)N2Cc3c(C4CCCO4)n[nH]c3C[C@@H]2C)ccc1F (stereo partly drawn) [971 D2] | 100 to 500
35 | O=C(Nc1cccc(Cl)c1)N1CCc2[nH]nc(C3CCCC3)c2C1 [Compound 264, N-(3-chlorophenyl)-3-cyclopentyl-1,4,6,7-tetrahydro pyrazolo[4,3-c]pyridine-5-carboxamide] | 10 to 100
36 | CC(C)c1n[nH]c2c1CN(C(=O)Nc1cccc(Cl)c1)CC2 [Compound 267] | 100 to 500
37 | O=C(Nc1cccc(Cl)c1)N1CCc2[nH]nc(C3=CCOCC3)c2C1 [Compound 274] | 100 to 500
38 | O=C(Nc1cccc(Cl)c1)N1CCc2[nH]nc(C3CCOCC3)c2C1 [Compound 275] | 100 to 500
39 | C=C(C)c1n[nH]c2c1CN(C(=O)Nc1cccc(Cl)c1)CC2 [Compound 336] | 10 to 100
40 | O=C(Nc1cccc(Cl)c1)N1CCc2[nH]nc(C3=CCCCC3)c2C1 [Compound 337, N-(3-chlorophenyl)-3-(cyclohexen-1-yl)-1,4,6,7-tetrahydro pyrazolo[4,3-c]pyridine-5-carboxamide] | 10 to 100
41 | O=C(Nc1cccc(Cl)c1)N1CCc2[nH]nc(C3=CCCC3)c2C1 [Compound 338, N-(3-chlorophenyl)-3-(cyclopenten-1-yl)-1,4,6,7-tetrahydropyrazolo[4,3-c]pyridine-5-carboxamide] | 10 to 100
42 | O=C(Nc1cccc(Cl)c1)N1CCc2[nH]nc(C3CC3)c2C1 [Compound 440, N-(3-chlorophenyl)-3-cyclopropyl-1,4,6,7-tetrahydropyrazolo[4,3-c]pyridine-5-carboxamide] | 100 to 500
43 | CC1(c2n[nH]c3c2CN(C(=O)Nc2cccc(Cl)c2)CC3)CC1 [Compound 441] | 100 to 500
44 | O=C(Nc1cccc(Cl)c1)N1CCc2[nH]nc(N3CCCC3)c2C1 [Compound 455, N-(3-chlorophenyl)-3-pyrrolidin-1-yl-1,4,6,7-tetrahydropyrazolo[4,3-c] pyridine-5-carboxamide] | 100 to 500
45 | CC(C)(C)c1n[nH]c2c1CN(C(=O)Nc1cccc(Cl)c1)CC2 [Compound 515, 3-tert-butyl-N-(3-chlorophenyl)-1,4,6,7-tetrahydropyrazolo[4,3-c]pyridine-5-carboxamide] | 100 to 500
46 | O=C(Nc1cccc(Cl)c1)N1CCc2[nH]nc(C34CCCC3C4)c2C1 (stereo not drawn) [Compound 546, 3-(1-bicyclo[3.1.0]hexanyl)-N-(3-chlorophenyl)-1,4,6,7-tetrahydropyrazolo[4,3-c]pyridine-5-carboxamide] | 10 to 100
47 | C=C(C)c1n[nH]c2c1CN(C(=O)Nc1ccnc(Cl)c1F)CC2 [Compound 547] | 100 to 500
48 | C=C(C)c1n[nH]c2c1CN(C(=O)Nc1cccc(Br)c1F)CC2 [Compound 548] | 10 to 100
